Source: the NIST ThermoML archive (doi:10.1016/j.fluid.2013.03.008)

Conditions: Liquid, Closed cell (Static) method

CCCCCCCCCCCCCC(=O)OCC [ethyl tetradecanoate]
Conditions	vapor or sublimation pressure [kPa]
392.17 K	0.1
398.52 K	0.15
404.27 K	0.2
410.95 K	0.3
416.1 K	0.4
419.65 K	0.5
425.69 K	0.65
430.55 K	0.8
434.91 K	1
439.1 K	1.2
443.82 K	1.5

CCCCCCCCCCCCCCCC(=O)OCC [ethyl hexadecanoate]
Conditions	vapor or sublimation pressure [kPa]
412.63 K	0.1
419.36 K	0.15
425.07 K	0.2
433.31 K	0.3
438.71 K	0.4
442.68 K	0.5
448.35 K	0.65
452.99 K	0.8
457.98 K	1
462.64 K	1.2
468.07 K	1.5
